Reference: patent US12365655B2, “Compounds” (CTXT PTY LTD, priority 2018, dated 2025)

Legend:
QKF-KAT6B = target: T1, QKF-KAT6B (Homo sapiens, UniProt Q8WYB5); experiment: Acetyltransferase biochemical assay (AlphaScreen), KAT6B; settings: 8 nM KAT6B, 1 μM AcCoA, 100 nM histone H3.1
T1 construct: purchased SignalChem K315-381BG
Excerpt: KAT6B was obtained from SignalChem, catalog ID: K315-381BG

[1] = system: acetylation of the histone H3K23 marker in U2OS cells; experiment: Histone H3 Lysine 23 Acetylation Biomarker Assay; assay type: cell-based; settings: Homo sapiens, 24 hours incubation, read-out: IC50, inhibition of histone H3K23 acetylation
Method: Compounds were tested for their ability to inhibit acetylation of the histone H3K23 marker in the following assay:
The cell line U2OS was seeded at a density of 9,000 cells per well in 96 well optical quality tissue culture plates in RPMI medium and 10% foetal bovine serum, and allowed to adhere for 24 hours under standard culture conditions (37 degree Celsius, 5% CO2). At the end of this period the medium was aspirated. […] After incubation for 24 hours, the cells were fixed with 3.7% formaldehyde in PBS for 20 minutes at room temperature, washed (5×5 minutes) with phosphate buffer saline containing 0.1% Tween 20 and blocked with Odyssey blocking buffer (LI-COR, Lincoln, Nebr.) containing 0.1% TritonX100. Anti-H3K23ac specific antibody (Abcam ab177275) in Odyssey blocking buffer containing 0.1% Tween 20 was added and incubated for 16 hours at 4 degree Celsius. After washing (as above), a secondary antibody labelled with Alexa647 dye (LifeTechnologies) and Hoechst 33342 (1 μg/mL, SigmaAldrich) were added for 1 hour incubation. Plates were washed as previously and read on a PerkinElmer Phenix high content imaging platform. Using a Columbus image analysis pipeline, individual nuclei were located by Hoechst 33342 stain and the acetylation level was calculated from the Alexa647-related intensity in the same area.

[2] = system: acetylation of the histone H3 Lysine 14 marker in U2OS cells; experiment: Histone H3 Lysine 14 Acetylation Biomarker Assay; assay type: cell-based; settings: Homo sapiens, serum free medium, 24 hours incubation, read-out: IC50, inhibition of histone H3 Lysine 14 acetylation
Method: Compounds were tested for their ability to inhibit acetylation of the histone H3 Lysine 14 marker in the following assay:
The cell line U2OS was seeded at a density of 3,000 cells per well in 384-well optical quality tissue culture plates in RPMI medium supplemented with 10% foetal bovine serum and 10 mM Hepes. The cells were allowed to adhere for 24 hours under standard culture conditions (37 degree Celsius, 5% CO2). At the end of this period the cells were washed with serum free medium. […] After incubation for 24 hours, the cells were fixed with 4% formaldehyde in PBS for 15 minutes at room temperature, washed with phosphate buffer saline and blocked with blocking buffer containing 0.2% TritonX100 and 2% BSA. Anti-H3K14ac specific antibody (Cell Signalling Technologies) in blocking buffer was added and incubated overnight at 4 degree Celsius. After washing, a secondary antibody labelled with AlexaFluor 488 dye (ThermoFisher) and Hoechst 33342 (1 μg/mL, Life Technologies) were added for 2 hours incubation at room temperature. Plates were washed and read on a PerkinElmer Opera HCS high content imaging platform. Using a Columbus image analysis pipeline, individual nuclei were located by Hoechst 33342 stain and the acetylation level was calculated from the AlexaFluor 488-related intensity in the same area.

[3] = system: histone H2A.Z Lysine 7 acetylation marker in U2OS cells; experiment: H2A.Z Lysine 7 Acetylation Biomarker Assay; assay type: cell-based; settings: Homo sapiens, serum free medium, 24 hours incubation, read-out: IC50, inhibition of histone H2A.Z Lysine 7 acetylation
Method: Compounds were tested for their ability to inhibit the histone H2A.Z Lysine 7 acetylation marker in the following assay:
The cell line U2OS was seeded at a density of 3,000 cells per well in 384-well optical quality tissue culture plates in RPMI medium supplemented with 10% foetal bovine serum and 10 mM Hepes. The cells were allowed to adhere for 24 hours under standard culture conditions (37 degree Celsius, 5% CO2). At the end of this period the cells were washed with serum free medium. […] 2018, at 30 μM concentration. After incubation for 24 hours, the cells were fixed with 4% formaldehyde in PBS for 15 minutes at room temperature, washed with phosphate buffer saline and blocked with blocking buffer containing 0.2% TritonX100 and 2% BSA. Anti-H2A.ZK7ac specific antibody (Abcam) in blocking buffer was added and incubated overnight at 4 degree Celsius. After washing, a secondary antibody labelled with AlexaFluor 488 dye (ThermoFisher) and Hoechst 33342 (1 μg/mL, Life Technologies) were added for 2 hours incubation at room temperature. Plates were washed and read on a PerkinElmer Opera HCS high content imaging platform. Using a Columbus image analysis pipeline, individual nuclei were located by Hoechst 33342 stain and the acetylation level was calculated from the AlexaFluor 488-related intensity in the same area.

MOF-KAT8 = target: T2, MOF-KAT8 (Homo sapiens, UniProt Q9H7Z6); experiment: biochemical
T2 sequence (Q9H7Z6 with tags, fused parts or gaps): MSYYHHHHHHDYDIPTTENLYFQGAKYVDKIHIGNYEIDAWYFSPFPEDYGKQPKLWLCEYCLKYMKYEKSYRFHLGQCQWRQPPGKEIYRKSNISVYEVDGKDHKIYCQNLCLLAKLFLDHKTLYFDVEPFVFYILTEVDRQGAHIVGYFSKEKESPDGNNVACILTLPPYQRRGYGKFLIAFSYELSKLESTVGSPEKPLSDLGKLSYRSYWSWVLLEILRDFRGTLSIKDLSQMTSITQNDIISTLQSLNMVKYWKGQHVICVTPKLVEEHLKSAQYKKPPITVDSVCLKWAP

TIP60-KAT5 = TIP60-KAT5 (Homo sapiens, UniProt Q92993); experiment: Acetyltransferase biochemical assay (AlphaScreen), KAT5
HBO-KAT7 = HBO-KAT7 (Homo sapiens, UniProt O95251); experiment: Acetyltransferase biochemical assay (AlphaScreen), KAT7
MOZ-KAT6A = MOZ-KAT6A (Homo sapiens, UniProt Q92794, A567V); experiment: Acetyltransferase biochemical assay (AlphaScreen), KAT6A
Chain of MOZ-KAT6A (Q92794 with tags, fused parts or gaps A567V): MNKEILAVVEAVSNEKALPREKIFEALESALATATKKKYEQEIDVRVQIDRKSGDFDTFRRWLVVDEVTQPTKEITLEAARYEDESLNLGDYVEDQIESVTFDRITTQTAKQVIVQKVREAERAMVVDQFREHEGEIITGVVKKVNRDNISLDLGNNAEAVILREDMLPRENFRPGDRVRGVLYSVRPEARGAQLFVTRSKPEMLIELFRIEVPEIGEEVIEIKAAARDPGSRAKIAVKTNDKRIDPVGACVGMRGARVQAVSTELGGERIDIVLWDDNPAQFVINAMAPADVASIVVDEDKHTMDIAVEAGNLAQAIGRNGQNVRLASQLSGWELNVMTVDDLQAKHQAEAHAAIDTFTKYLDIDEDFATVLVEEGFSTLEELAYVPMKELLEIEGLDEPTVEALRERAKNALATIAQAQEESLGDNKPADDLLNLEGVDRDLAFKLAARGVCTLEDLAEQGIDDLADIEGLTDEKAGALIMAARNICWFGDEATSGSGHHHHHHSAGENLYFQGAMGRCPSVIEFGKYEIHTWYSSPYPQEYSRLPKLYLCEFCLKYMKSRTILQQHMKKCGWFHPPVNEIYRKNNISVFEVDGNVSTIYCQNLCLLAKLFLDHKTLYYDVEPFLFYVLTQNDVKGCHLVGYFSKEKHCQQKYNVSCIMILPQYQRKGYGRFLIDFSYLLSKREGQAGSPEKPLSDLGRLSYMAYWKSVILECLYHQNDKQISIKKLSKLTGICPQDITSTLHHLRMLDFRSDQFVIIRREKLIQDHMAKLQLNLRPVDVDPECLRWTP

Chain of TIP60-KAT5 (Q92993 with tags, fused parts or gaps isoform Q92993-2): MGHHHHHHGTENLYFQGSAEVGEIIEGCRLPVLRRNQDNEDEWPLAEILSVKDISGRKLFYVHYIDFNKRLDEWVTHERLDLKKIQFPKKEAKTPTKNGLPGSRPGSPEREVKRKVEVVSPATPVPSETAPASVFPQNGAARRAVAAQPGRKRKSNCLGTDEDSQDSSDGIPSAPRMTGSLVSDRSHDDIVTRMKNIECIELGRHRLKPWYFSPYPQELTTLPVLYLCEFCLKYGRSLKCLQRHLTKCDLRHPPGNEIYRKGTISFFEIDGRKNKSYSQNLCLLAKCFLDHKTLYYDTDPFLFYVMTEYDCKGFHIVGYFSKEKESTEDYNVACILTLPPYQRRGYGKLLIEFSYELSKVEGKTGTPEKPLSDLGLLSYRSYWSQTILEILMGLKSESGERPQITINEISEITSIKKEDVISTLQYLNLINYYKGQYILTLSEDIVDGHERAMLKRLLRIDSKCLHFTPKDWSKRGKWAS
Chain of HBO-KAT7 (O95251 with tags, fused parts or gaps): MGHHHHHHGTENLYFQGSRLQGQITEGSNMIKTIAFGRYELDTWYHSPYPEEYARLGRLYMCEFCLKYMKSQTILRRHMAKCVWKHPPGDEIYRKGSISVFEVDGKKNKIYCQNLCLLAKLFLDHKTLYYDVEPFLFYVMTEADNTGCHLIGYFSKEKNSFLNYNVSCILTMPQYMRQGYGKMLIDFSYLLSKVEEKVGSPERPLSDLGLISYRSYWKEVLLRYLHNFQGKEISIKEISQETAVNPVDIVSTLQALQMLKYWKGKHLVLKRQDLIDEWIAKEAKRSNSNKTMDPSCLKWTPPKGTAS
T1 sequence (Q8WYB5 whole entry): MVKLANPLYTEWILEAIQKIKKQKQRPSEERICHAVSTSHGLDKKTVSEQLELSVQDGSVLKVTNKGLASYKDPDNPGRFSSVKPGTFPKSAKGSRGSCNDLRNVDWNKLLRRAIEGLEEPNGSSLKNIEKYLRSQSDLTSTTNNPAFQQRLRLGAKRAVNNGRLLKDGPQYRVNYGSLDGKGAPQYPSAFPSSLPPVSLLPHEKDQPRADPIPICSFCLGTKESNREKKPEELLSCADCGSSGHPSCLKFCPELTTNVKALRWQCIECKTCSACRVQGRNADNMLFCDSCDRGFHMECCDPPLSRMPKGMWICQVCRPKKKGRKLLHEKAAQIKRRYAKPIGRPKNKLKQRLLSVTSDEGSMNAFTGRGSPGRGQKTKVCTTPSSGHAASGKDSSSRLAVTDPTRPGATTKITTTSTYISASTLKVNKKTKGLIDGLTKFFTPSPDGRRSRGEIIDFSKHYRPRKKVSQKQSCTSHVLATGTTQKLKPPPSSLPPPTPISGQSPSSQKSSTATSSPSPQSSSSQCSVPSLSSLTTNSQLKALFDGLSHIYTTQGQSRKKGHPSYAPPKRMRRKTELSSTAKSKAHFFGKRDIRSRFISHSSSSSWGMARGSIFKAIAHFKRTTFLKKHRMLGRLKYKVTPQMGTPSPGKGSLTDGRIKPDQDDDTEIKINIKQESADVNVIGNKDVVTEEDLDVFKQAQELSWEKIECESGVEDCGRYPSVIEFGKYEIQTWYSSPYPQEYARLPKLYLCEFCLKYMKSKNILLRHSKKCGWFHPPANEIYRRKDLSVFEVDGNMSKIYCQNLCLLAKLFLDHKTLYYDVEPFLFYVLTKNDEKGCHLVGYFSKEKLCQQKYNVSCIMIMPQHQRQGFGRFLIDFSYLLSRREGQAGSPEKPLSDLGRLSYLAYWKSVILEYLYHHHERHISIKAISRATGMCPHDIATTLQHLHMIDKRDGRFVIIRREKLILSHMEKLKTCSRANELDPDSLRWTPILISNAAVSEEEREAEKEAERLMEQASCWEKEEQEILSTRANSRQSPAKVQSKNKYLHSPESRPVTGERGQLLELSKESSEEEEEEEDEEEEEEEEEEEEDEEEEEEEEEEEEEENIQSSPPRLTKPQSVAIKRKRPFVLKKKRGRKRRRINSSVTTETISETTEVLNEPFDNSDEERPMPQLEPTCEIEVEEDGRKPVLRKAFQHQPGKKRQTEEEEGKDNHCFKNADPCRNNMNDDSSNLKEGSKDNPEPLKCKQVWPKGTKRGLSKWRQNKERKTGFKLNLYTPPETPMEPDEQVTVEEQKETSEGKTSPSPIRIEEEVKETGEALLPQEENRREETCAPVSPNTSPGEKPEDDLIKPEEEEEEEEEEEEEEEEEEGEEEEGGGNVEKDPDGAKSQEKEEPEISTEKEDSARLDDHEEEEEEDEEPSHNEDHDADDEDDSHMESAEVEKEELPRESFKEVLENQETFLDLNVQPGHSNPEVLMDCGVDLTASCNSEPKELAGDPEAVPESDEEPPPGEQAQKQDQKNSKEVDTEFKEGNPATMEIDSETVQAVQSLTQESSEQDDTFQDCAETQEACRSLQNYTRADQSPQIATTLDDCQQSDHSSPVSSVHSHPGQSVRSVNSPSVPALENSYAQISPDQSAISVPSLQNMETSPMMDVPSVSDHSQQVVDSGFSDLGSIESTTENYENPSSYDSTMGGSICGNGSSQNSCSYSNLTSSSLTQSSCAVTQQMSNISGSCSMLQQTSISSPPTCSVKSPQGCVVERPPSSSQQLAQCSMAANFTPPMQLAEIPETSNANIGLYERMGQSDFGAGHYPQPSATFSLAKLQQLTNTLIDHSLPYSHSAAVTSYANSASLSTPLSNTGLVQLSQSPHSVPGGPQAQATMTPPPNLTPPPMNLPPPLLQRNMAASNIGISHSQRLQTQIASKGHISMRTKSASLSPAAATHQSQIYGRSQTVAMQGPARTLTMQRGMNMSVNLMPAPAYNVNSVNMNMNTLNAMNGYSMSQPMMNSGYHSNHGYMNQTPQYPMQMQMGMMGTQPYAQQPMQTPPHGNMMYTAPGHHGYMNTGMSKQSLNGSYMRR

Row | IC50 (QKF-KAT6B) [nM] | IC50 [1] [nM] | IC50 [2] [nM] | IC50 [3] [nM] | IC50 (TIP60-KAT5) [nM] | IC50 (HBO-KAT7) [nM] | IC50 (MOZ-KAT6A) [nM] | SMILES | IC50 (MOF-KAT8) [nM]
1 | 121 | 685 | 1070 | 7610 | 5670 | 138 | 30 | COc1ccccc1-c1cc(OC)c2c(NS(=O)(=O)c3c(OC)cccc3OC)noc2c1 [Example 176, 2,6-Dimethoxy-N-(4-methoxy-6-(2-methoxyphenyl)benzo[d]isoxazol-3-yl)benzenesulfonamide] | –
2 | 92 | 1490 | 135 | 1090 | 7080 | 21 | 127 | COc1cccc(-c2cc(OC)c3c(NS(=O)(=O)c4c(OC)cccc4OC)noc3c2)c1 [Example 177, 2,6-Dimethoxy-N-(4-methoxy-6-(3-methoxyphenyl)benzo[d]isoxazol-3-yl)benzenesulfonamide] | –
3 | 53 | 13 | 703 | 4620 | 1390 | 60 | 6 | COc1cccc(OC)c1S(=O)(=O)Nc1noc2cc(-c3cccc(O)c3)cc(OC)c12 [Example 92] | –
4 | > 125000 | > 10000 | > 40000 | > 40000 | > 125000 | > 125000 | 93600 | COc1cccc(OC)c1S(=O)(=O)Nc1noc2cc(-c3ncco3)ccc12 [Example 147, 2,6-Dimethoxy-N-(6-(oxazol-2-yl)benzo[d]isoxazol-3-yl)benzenesulfonamide] | –
5 | 42 | 14 | 1450 | 29200 | 9070 | 426 | 37 | CCOCc1cc(OC)c2c(NS(=O)(=O)c3c(OC)cccc3OC)noc2c1 [Example 172] | –
6 | 291 | 45 | 2300 | 15100 | 22000 | 511 | 153 | COc1cccc(OC)c1S(=O)(=O)Nc1noc2cc(-c3ccccn3)cc(OC)c12 [Example 146, 2,6-Dimethoxy-N-(4-methoxy-6-(pyridin-2-yl)benzo[d]isoxazol-3-yl)benzenesulfonamide] | –
7 | 50700 | – | – | – | > 125000 | 7880 | 32400 | COc1cccc(OC)c1S(=O)(=O)Nc1noc2c(-c3cnn(C)c3)ccc(OC)c12 [Example 143, 2,6-Dimethoxy-N-(4-methoxy-7-(1-methyl-1H-pyrazol-4-yl)benzo[d]isoxazol-3-yl)benzenesulfonamide] | –
8 | 1620 | 3460 | – | – | 10500 | 1440 | 560 | CCc1ccc(OC)c(S(=O)(=O)Nc2noc3cccc(OC)c23)c1 [Example 116, 5-Ethyl-2-methoxy-N-(4-methoxybenzo[d]isoxazol-3-yl)benzenesulfonamide] | –
9 | 18 | 17 | 68 | 1540 | 1830 | 31 | 13 | COc1cccc(OC)c1S(=O)(=O)Nc1noc2cc(-c3ccccc3)cc(OC)c12 [Example 174, 2,6-Dimethoxy-N-(4-methoxy-6-phenylbenzo[d]isoxazol-3-yl)benzenesulfonamide] | –
10 | 57 | 128 | 2950 | 18800 | 11500 | 286 | 261 | COc1cccc(OC)c1S(=O)(=O)Nc1noc2cc(-c3ncco3)cc(OC)c12 [Example 144, 2,6-Dimethoxy-N-(4-methoxy-6-(oxazol-2-yl)benzo[d]isoxazol-3-yl)benzenesulfonamide] | –
11 | 1450 | – | – | – | 4610 | 257 | 104 | CCc1ccc(OC)c(S(=O)(=O)Nc2noc3ccc(C4CC4)c(Cl)c23)c1 [Example 207] | –
12 | 49 | 45 | 1090 | 28000 | 6180 | 444 | 61 | COCc1cc2onc(NS(=O)(=O)c3c(OC)cccc3OC)c2cc1C [Example 97, 2,6-Dimethoxy-N-(6-(methoxymethyl)-5-methylbenzo[d]isoxazol-3-yl)benzenesulfonamide] | –
13 | 37 | 182 | 874 | 8020 | 2180 | 79 | 9 | COCc1cc(OC)c2c(NS(=O)(=O)c3c(OC)cc(-c4ccccc4)cc3OC)noc2c1 [Example 91, 3,5-Dimethoxy-N-(4-methoxy-6-(methoxymethyl)benzo [d]isoxazol-3-yl)-[1,1-biphenyl]-4-sulfonamide] | –

Row | SMILES | IC50 (QKF-KAT6B) [nM] | IC50 [1] [nM] | IC50 [2] [nM] | IC50 [3] [nM] | IC50 (TIP60-KAT5) [nM] | IC50 (HBO-KAT7) [nM] | IC50 (MOZ-KAT6A) [nM] | IC50 (MOF-KAT8) [nM]
14 | COCc1cc2onc(NS(=O)(=O)c3ccc(OC)cc3OC)c2cc1C [Example 166, 2,4-dimethoxy-N-(6-(methoxymethyl)-5-methylbenzo[d]isoxazol-3-yl)benzenesulfonamide] | 227 | 398 | 3690 | 33300 | 3090 | 328 | 123 | 2920
15 | COc1cccc(OC)c1S(=O)(=O)Nc1noc2cc(-c3ncco3)c(C)cc12 [Example 102, 2,6-Dimethoxy-N-(5-methyl-6-(oxazol-2-yl)benzo[d]isoxazol-3-yl)benzenesulfonamide] | 282 | – | 3690 | > 40000 | 9330 | 568 | 143 | 11500
16 | COc1cc(-c2ccccc2)cc(OC)c1S(=O)(=O)Nc1noc2cccc(OC)c12 [Example 95, 3,5-Dimethoxy-N-(4-methoxybenzo[d]isoxazol-3-yl)-[1,1-biphenyl]-4-sulfonamide] | 1640 | > 10000 | 9090 | > 40000 | 14000 | 754 | 430 | 6450
17 | COc1ccc(-c2ccccc2)c(OC)c1S(=O)(=O)Nc1noc2cccc(OC)c12 [Example 96, 2,4-Dimethoxy-N-(4-methoxybenzo[d]isoxazol-3-yl)-[1,1-biphenyl]-3-sulfonamide] | 3390 | > 10000 | – | – | 28600 | 4270 | 1200 | 53800
